Results reported in US8465921B2, “Hybridization and mismatch discrimination using oligonucleotides conjugated to minor groove binders” (Elitech Holding B.V., priority 1995, dated 2013).

Experiments:
[1] = system: complementary oligonucleotide; experiment: Thermal denaturation of hybrids of ODNs and MGB-ODN conjugates with their complements (Table 6); type: binding; conditions: 2 μM ODN, 1:1 with complement; 140 mM KCl, 10 mM MgCl2, 20 mM HEPES-HCl (pH 7.2); 0.5° C./min
Description: Hybrids formed between MGB-oligonucleotide conjugates or unmodified oligonucleotides and their complements were melted at a rate of 0.5° C./min in 140 mM KCl, 10 mM MgCl2 and 20 mM HEPES-HCl (pH 7.2) on a Lambda 2S (Perkin Elmer) spectrophotometer with a PTP-6 automatic multicell temperature programmer. Each oligonucleotide (2 μM) was mixed with sufficient complementary oligonucleotide to give a 1:1 ratio. Prior to melting, samples were denatured at 100° C. and then cooled to the starting temperature over a 10 min period. The melting temperatures (Tm) of the hybrids were determined from the derivative maxima and collected in Table 6. In the “sequence” column of Table 6, MGB refers to the presence of CDPI3 conjugated through a hexylamine linker esterified to the 5′-phosphate group of the oligonucleotide (see FIG. 2).

[2] = system: E. coli supF gene contained in the plasmid pSP189; experiment: Hydrolyzable probe assay with ppG-substituted 15-mer probe (Example 3); type: biochemical; conditions: annealing/elongation at 75° C. (FIG. 6)
Description: Further increases in discriminatory ability of a MGB-oligonucleotide conjugate are obtained when the conjugate also contains a pyrazolo[3,4-d]pyrimidine nucleotide analogue. In this system, the target sequence is located in the E. coli supF gene contained in the plasmid pSP189 (FIG. 5, SEQ ID No.: 40). See Parris et al. (1992) Gene 117: 1-5. Binding sites for the primers used for amplification are indicated as Primer 1 and Primer 2, with Primer 1 having a sequence and polarity that is identical to that shown in FIG. 5, and Primer 2 having a sequence and polarity that is the reverse complement to that shown in FIG. 5. A 15-mer probe, labeled with fluorescein at the 5′-end, and with TAMRA and CDPI3 at the 3′-end, was designed to be complementary to a region within the approximately 375 nucleotides between the primers, as indicated in FIG. 5. This probe was tested using a series of templates, each containing a different single-nucleotide mismatch with the probe sequence, as shown in FIG. 5 and described infra.
The 15-nucleotide region of the template that is complementary to the probe used in this study was modified to generate a series of point mutations, as shown in FIG. 5. Each of the mutant templates was used in a separate assay with the 15-mer probe. The mutant sequences within this region of the template were as follows, with the mismatched nucleotide indicated by bold underlining: […]

[3] = system: HIA DQβ1 0302 allele in BSM cells; experiment: Sequence-specific alkylation of a gene in cultured human cells (cell culture crosslinking, LM-PCR); type: cell-based
[4] = system: exact complement; experiment: Tm of 8-mer oligonucleotides with varying A + T content, with and without MGB (Table 11); type: binding; conditions: MGB-conjugated 8-mer hybridized with its exact complement
Description: Short oligonucleotides of differing A+T content, conjugated to a MGB, were used to investigate the effect of base composition on Tm for MGB-short oligonucleotide conjugates (Table 11). Tms were determined on a Perkin Elmer) λ2S UV/VIS spectrophotometer, equipped with a PTP-6 temperature controller, using the PECSS software package.

[5] = system: long single stranded DNA template; experiment: Primer extension experiment (blockage of T7 DNA polymerase by ODN); type: biochemical; conditions: template 5×10^−10 M, primer 4×10^−8 M, blocking ODN 10^−9 M; 15 min at 45° C.; denaturing gel
Description: In this experiment, primer extension occurs with the enzyme T7 DNA polymerase that works from the 5′ end of a template strand. A 16-mer ODN-MGB which was complementary in the Watson Crick sense to a target sequence on the template strand was incubated with a long single stranded DNA template and the T7 DNA polymerase enzyme. […] The minor groove binder was the pyrroloindole tripeptide shown in this application in Table 5. When there was a single mismatch in the sequence specificity of the 16-mer to the target, primer extension was not blocked. Primer extension Was also not blocked when the minor groove binder moiety was attached to the 3′ end of the 16-mer. Primer extension was also not blocked when the sequence specific 16-mer and the free minor groove binder molecule (Compound 3d, not covalently attached to the ODN) was incubated with the template and the enzyme. […] (See Nucleic Acid Research (1993) 21: 5332-5336).
Primer extension reactions were performed as previously described by Lee, et al., (1994) Biochemistry 33: 6024-6030. The final concentrations of template, primer and blocking ODMs were 5×10^−10 M, 4×10^−8 M and 10^−9 M, respectively. Primer extension was carried out for 15 min at 45° C. and the products were analyzed by denaturing gel electrophoresis as described in the reference. […]

| Substance | Tm [1] [°C] | further results |
| --- | --- | --- |
| 1 (DNA ATAAAACAGAGGTGAG; DNA, backbone not given here) [compound 1] | 45 | – |
| 2 (DNA ATAAAACAGAGG; DNA, backbone not given here) [compound 2] | 39 | – |
| 3 (DNA ATAAAACAGA; DNA, backbone not given here) [compound 3] | 24 | – |
| 4 (DNA TAATAACGTTCGGGCA; DNA, backbone not given here) [compound 4] | 50 | – |
| 5 (DNA ATAACG; DNA, backbone not given here) [compound 5] | 16 | – |
| 5'-GGGTTCCCGAGCGGC (chemistry not fully specified) [MGB-conjugated 15-mer, 5′-fluorescein, 3′-TAMRA and CDPI3 probe, all guanine residues replaced by ppG] | – | generation of signal with single-base mismatch [2]: completely suppressed; level of signal with perfect match [2]: no effect on the level of signal |
| 5′-GGTTATTTTTGAAGATACGAATTTCUCCAGAGACACAGCAGGATTTGTCA-CDPI3 [CDPI3-containing 50-mer] | – | alkylation of the targeted site ([3]; 1-50 μM, […], LM-PCR, sequencing gel): had bound to and alkylated the targeted site; efficiency of sequence specific alkylation of the 0302 allele versus the same ODN without the MGB ([3]; […] at 37° C.): 10 fold |
| 5′-MGB-CAATAATA: 8-mer MGB-oligonucleotide conjugate | – | Tm + MGB [4]: 45 °C |
| 8 (DNA CGGGCAAA; DNA, backbone not given here) [compound 8] | 25 | – |
| 9 (DNA CGGGCAAAGGATTTAA; DNA, backbone not given here) [compound 9] | 47 | – |
| 10 (DNA GGCAAA; DNA, backbone not given here) [compound 10] | <17 | – |
| 11 (DNA CGGCTCTA; DNA, backbone not given here) [compound 11] | 23 | – |
| 12 (DNA CGGCTCTAATCTATTA; DNA, backbone not given here) [compound 12] | 43 | – |
| 13 (DNA TATTTTAGATAACCTT; DNA, backbone not given here) [compound 13] | 34 | – |
| [3-carbamoyl-1,2-dihydro-3H-pyrrolo[3,2-e]indole-7-carbox]-1-amido-3-propanol Trmer [Compound 3d] | – | blockage of primer extension by T7 DNA polymerase [5]: not blocked |
